# Laboratory results taken from the pKa sets of Baltruschat and Czodrowski (2020).
# Where a SMILES comes first, the peptide text is derived from it.
# Conditions: acidic group
row,Structure (SMILES),pKa
1,CN(C)c1cc[n+](O)cc1,3.9
2,CC(=O)c1ccc(C(=O)O)cc1,3.72
3,NC(=O)[C@H]1CC(=O)N[C@@H]1C(=O)O,3
4,C[S+](C)CC(=O)c1ccccc1,8.6
5,OCc1ccccc1O,9.92
6,OCc1ccc(O)c(CO)c1,9.77
7,CC(C)(C)OC(=O)NS(=O)(=O)c1ccc(S(C)(=O)=O)cc1,3.76
8,O=S(=O)([O-])c1ccc(O)c2[nH]ncc12,7.6
9,CC(C)(/C=C/C(=O)O)c1cc([N+](=O)[O-])ccc1O,4.26
10,Oc1cc2ccccc2cc1C1=[NH+]CCN1,7.01
11,CC(C)=CC[C@@H]1C(=O)C(C(=O)CC(C)C)=C(O)[C@H]1O,2.35
12,O=C1Oc2ccccc2C(=O)C1Cc1c([O-])c2ccccc2oc1=O (stereo unspecified),8.3
13,C/C=C/C#CC(=O)O,2.67
14,Cc1ccc(C(O)C(C(=O)O)c2ccc(C3CCCCC3)cc2)cc1 (stereo unspecified),4.18
15,Oc1ccc2ncncc2c1,8.19
16,Cc1ccc(O)c2ncccc12,9.93
17,c1cc2[nH]cnc2cn1,10.9
18,Nc1ccc(NS(=O)(=O)c2ccccc2)cc1,9.05
19,O=C1NC(=O)[C@@H]2CCCC[C@H]12,9.72
20,O=C(O)C1CCC[NH2+]1 (stereo unspecified),1.99
21,COc1c(O)ccc2c1C[N+]1(C)CCc3cc4c(cc3[C@@H]1C2)OCO4 (stereo partly specified),8.45

row,Structure (SMILES),pKa
1,O=[N+]([O-])c1cccc([Se](=O)O)c1,4.07
2,CC(C)[NH2+]CC(=O)c1ccc(O)cc1,7.56
3,CC(C)[NH2+]CCc1ccc(O)cc1,9.59
4,COc1ncc2[nH]cnc2n1,9.2
5,Cc1cc(/N=N/c2ccc(S(N)(=O)=O)cc2)cc(C(=O)[O-])c1O,10.2
6,N#CC(C#N)=C(C#N)Nc1cccc([N+](=O)[O-])c1,3.45
7,CC(c1ccc([N+](=O)[O-])cc1)[N+](=O)[O-] (stereo unspecified),6.51
8,COc1nc(C)cc(O)[nH+]1,1.6
9,O=[N+]([O-])c1ccc(O)c(O)c1,6.74
10,Nc1ccc(S(=O)(=O)Nc2ccncn2)cc1,6.17
11,O=C(O)CCCC1CCCCC1,4.95
12,O=C1CC(Sc2ccccc2)N1 (stereo unspecified),13.3
13,NC(=O)c1cc(-c2ccccc2)nnc1NCCN1CCOCC1,6.85
14,COc1ccc([Se]O)c([N+](=O)[O-])c1,10.7
15,[NH3+]C(c1cccc(O)c1O)P(=O)([O-])[O-] (stereo unspecified),9.44
16,CC1CC(=O)N(O)C1(C)C (stereo unspecified),8.85
17,CC(=N\O)/C(CO)=N/[O-],12.1
18,N#CC(C#N)Cc1ccc([N+](=O)[O-])cc1,10.9
19,[NH3+][C@H]1CC[C@H](C(=O)O)CC1,3.92
20,CC1CCC(O)(C(C(=O)O)c2ccc(-c3ccccc3)cc2)CC1 (stereo unspecified),3.45
21,O=C(O)Cn1nnnc1-c1ccccc1,2.11

row,Structure (SMILES),pKa
1,CC[C@@H](C(=O)O)[C@@]1(O)C[C@H]2CC[C@@H]1C2,4.26
2,CC(C)[C@H]([NH3+])C(=O)O,2.32
3,O=C(O)c1csc(Cl)n1,3.3
4,O=C(O)C12CC3(F)CC(F)(CC(F)(C3)C1)C2,3.24
5,CC(C)C[C@H]([NH3+])C(=O)O,2.54
6,CC(C)N(CCC(C(N)=O)(c1ccccc1)c1ccccn1)C(C)C (stereo unspecified),10.2
7,O=C(O)c1cccc(O)c1,4.07
8,O=C(O)C[C@]1(O)C[C@H]2CC[C@@H]1C2,4.57
9,SCc1c[nH]cn1,9.54
10,O=C(O)CCc1ccco1,4.36
11,Cc1ccc(C(N)=S)cc1,12.8
12,CCCCN(C(=O)c1cccc(O)c1)c1ccc(/N=N/c2ccc3c(c2)OCCOCCOCCOCCOCCO3)cc1,9.54
13,[NH3+]Cc1nnn[nH]1,2.62
14,Nc1ccc2cn[nH]c2c1,14.3
15,Nc1cc[nH+]c2c1ncn2CCOCP(=O)([O-])O,7.1
16,O=S(=O)(Nc1nccs1)c1ccc(O)cc1,6
17,Oc1cccc2scnc12,8.77
18,CC(C#N)(CC(=O)O)c1ccccc1 (stereo unspecified),3.99
19,CC(C)CC(N)C(=O)NC(CC(N)=O)C(=O)O (stereo not drawn) (H-Leu-Asn-OH; configuration not given here),8.23
20,O=C(/C=N/O)/C=N/O,7.65
21,[NH3+]CCC#CC#CCCC(=O)O,4.12

row,Structure (SMILES),pKa
1,O=C(O)C(=O)Cc1ccccc1,2.68
2,O=C(O)[C@@H]1C[C@@H](O)C[NH2+]1,1.92
3,CCN(CC)C(=S)S,3.95
4,Oc1ccc2c(c1)CCCC2,10.3
5,O=C(O)c1ccc([N+](=O)[O-])cc1Cl,1.96
6,O=C(O)CCCOC(=O)CCCBr,4.6
7,CC1(C)NC(=S)NC1=S,7.65
8,Cc1ccc(C(=O)C(=O)O)cc1,1.52
9,Cc1csc(Cc2ccccc2)[n+]1C,10.8
10,O=Nc1c(O)ccc2ncsc12,5.43
11,O=C([O-])C[NH+](CC(=O)[O-])Cc1cc([N+](=O)[O-])ccc1O,6.18
12,Cc1cc2nc3ccc(N(C)C)cc3nc2cc1N,14.7
13,O=C(O)C(c1ccc(C2CCCCC2)cc1)C(O)c1ccccc1 (stereo unspecified),4.24
14,Cc1c(Cn2cc[nH+]c2)n(C)c2ccc(C(=O)O)cc12,4.08
15,Cc1cc(C#N)cc(C)[n+]1O,-0.61
16,CC(C)(S)[C@@H](C(=O)[O-])n1ccnc1Cc1ccccc1,10.3
17,N#CC(C#N)=C(c1ccccc1)C(C#N)C#N,2.3
18,O=Cc1ccncc1O,6.77

# Same assay, conditions: basic group
row,Structure (SMILES),pKa
1,C=C[C@]1(O)C[NH+]2CC[C@H]1C[C@@H]2[C@@H](O)c1ccnc2ccc(OC)cc12,4.12
2,CCOc1c(C#N)cnc2ccccc12,3.18
3,Cc1ccc(C2CCCN2)cc1 (stereo unspecified),9.99
4,CC(=O)n1ccnc1C,5.03
5,CN(C)c1cc[n+](O)cc1,-7.58
